Assay results taken from the NIST ThermoML archive (doi:10.1016/j.jct.2017.02.011).
Numbers after ± are expanded uncertainties.

What was measured:
[1] = Crystal; DTA
[2] = Molar enthalpy of transition or fusion; conditions: Crystal; DSC

- Normal melting temperature [1]: 108.60 ± 0.5 °C
- Molar enthalpy of transition or fusion [2]: 3.94 ± 0.21 kcal/mol
SMILES: Cc1cc(C)[nH]n1 [3,5-dimethylpyrazole]
